The values that follow come from ChEMBL document CHEMBL1124201, “Optimizing of 2,3-diarylindenes as fluorescent estrogens: variation of the acceptor group, ortho substitution of the 2-ring, and C-1 methylation” (J Med Chem, 1988).

This assay deals with Estrogen receptor (Rattus norvegicus) (UniProt P06211+Q62986). The experiment in a line: Displacement of [3H]estradiol from estrogen receptor of rat uterine cytosol. In kind it is protein assay.
`N#Cc1ccc(C2=C(c3ccc(O)cc3)c3ccc(O)cc3C2)cc1` showed an RBA of 1%.

The compound `CC1C(c2ccccc2)=C(c2ccccc2)c2ccc(O)cc21` (stereo unspecified) showed an RBA of 12%.

In the case of `O=[N+]([O-])c1ccc(C2=C(c3ccccc3)c3ccc(O)cc3C2)cc1`, the RBA was 0.46%.

With `Oc1ccc(C2=C(c3cccnc3)Cc3cc(O)ccc32)cc1`, the RBA came out at 0.05%.

`Oc1ccc(C2=C(c3ccccc3C(F)(F)F)Cc3cc(O)ccc32)cc1` had an RBA of 38%.

The compound `O=[N+]([O-])c1ccc(C2=C(c3ccc(O)cc3)c3ccc(O)cc3C2)cc1` gave an RBA of 0.69%.

`Oc1ccc(C2=C(c3ccccc3)c3ccc(O)cc3C2)cc1` gave an RBA of 28%.

With `Oc1ccc(C2=C(c3ccccc3)Cc3cc(O)ccc32)cc1`, the RBA amounted to 4.7%.

Turning to `O=[N+]([O-])c1cccc(C2=C(c3ccc(O)cc3)c3ccc(O)cc3C2)c1`, the RBA is 0.6%.

Turning to `Cc1ccccc1C1=C(c2ccc(O)cc2)c2ccc(O)cc2C1`, the RBA was determined as 30%.

The compound `Oc1ccc(C2=C(c3ccc(Br)cc3)Cc3cc(O)ccc32)cc1` came in with an RBA of 0.76%.
